Common to all, as to assay: Antibacterial activity in vitro, agar diffusion method in Davis Mingioli medium
Holding throughout (format): cell-based

Assay [1] relates to Enterobacter cloacae 1321E. The conditions noted are these: 100 mg/l aqueous solution in 9 mm wells, incubation 24 h at 37°C, read-out: zones d'inhibition (diamètre en mm). The protocol: (§1) L'activité antibactérienne des produits revendiqués a été déterminée par la méthode de diffusion en milieu de Davis Mingioli additionné de 1% d'agar. Les géloses utilisées sont coulées en boîtes de Petri à 48°C, après ensemencement à […] au moyen de la souche bactérienne test. Les inocula proviennent d'une pré-culture de 24 heures en bouillon de Davis Mingioli. Après durcissement des géloses, les solutions aqueuses des produits étudiés sont introduites dans des puits (9 mm) creusés dans le milieu à l'aide d'un emporte-pièce. Les zones d'inhibition observées (diamètre en mm) sont mesurées après incubation de 24 heures à 37°C.

The subject of assay [2] is Salmonella typhimurium MZ11. Conditions: Salmonella enterica, 100 mg/l aqueous solution in 9 mm wells, incubation 24 h at 37°C, read-out: zones d'inhibition (diamètre en mm). Here is the method:
as §1

Another assay has as its system Escherichia Coli 078. The conditions noted are these: COLI078, 100 mg/l aqueous solution in 9 mm wells, incubation 24 h at 37°C, read-out: zones d'inhibition (diamètre en mm). Here is the method: as §1
The next assay concerns Providencia sp. DU48. Conditions: 100 mg/l aqueous solution in 9 mm wells, incubation 24 h at 37°C, read-out: zones d'inhibition (diamètre en mm). Here is the method: as §1

SMILES strings stand for the structures.

Take `C=CC(N)(CC(=C)CC(N)C(=O)O)C(=O)O` (stereo not drawn) [exemple 4, Acide 2,6-diamino 2-éthényl 4-méthylène heptanedioïque]: the zone of inhibition at 100 µg/mL in assay [1] is 26 mm; in assay [2], 31 mm; with Escherichia Coli 078 it was 17.5 mm; in the assay on Providencia sp. DU48, 29 mm.

For `C#CC(N)(CC(=C)CC(NCc1ccccc1)C(=O)O)C(=O)O` (stereo not drawn) [exemple 10, Acide 2-amino 2-éthynyl 4-méthylène 6-[(phénylméthyl)amino] heptanedioïque], the zone of inhibition at 100 µg/mL in assay [2] stood at 19 mm.

Regarding `C=C(CC(N)C(=O)O)CC(N)(CC)C(=O)O` (stereo not drawn) [exemple 7, Acide 2,6-diamino 2-éthyl 4-méthylène heptanedioïque], the zone of inhibition at 100 µg/mL in assay [1] turned out to be 29 mm; in assay [2], 34 mm; with Escherichia Coli 078 it was 18 mm; with Providencia sp. DU48 it was 28 mm.

These data come from patent publication EP0394118B1, “2,6-Aminoheptanedioic acid unsaturated derivatives, process for their preparation and their use as medicaments” (ROUSSEL-UCLAF, priority 1989, dated 1990).
